Test results as given in PubChem BioAssay AID1918991 (Molecular Pharmacology Branch, DTP, NCI, 2023).

Tested on: 186277-243-T-J2-PDC complex spheroid growth
Experiment: Anticancer human tumor 186277-243-T-J2-PDC patient-derived colon adenocarcinoma cell line growth inhibition [AhR]
Settings: for IC50: curve of first compound; for viability, T/C: stronger effect = lower value
Method in brief: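 Agents were dosed in half-log steps down from roughly clinical Cmax, or from 10 microM where Cmax was unknown, alone and with AhR antagonists. Read-out: percent test/control growth of tumor spheroids containing HUVEC and MSC stromal cells.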
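Also: spheroids exposed to compounds for seven days before the viability read.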
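For viability, T/C in this document: luminescent signal used as a stand-in for viable cell amount; 100% = DMSO vehicle control wells.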

## O=C(C=Cc1cccc(S(=O)(=O)Nc2ccccc2)c1)NO + Cc1ccccc1N=Nc1ccc(NC(=O)c2ccnn2C)c(C)c1
Second compound 0.1 µM
  IC50: 2020 nM
Second compound 0.316 µM
  IC50: 1740 nM
Second compound 1 µM
  IC50: 1900 nM
Second compound 3.16 µM
  IC50: 1660 nM
Second compound 10 µM
  IC50: 1470 nM
Second compound 0.1 µM, first compound 0.0316 µM
  viability, T/C: 114%
Second compound 0.1 µM, first compound 0.1 µM
  viability, T/C: 104%
Second compound 0.1 µM, first compound 0.316 µM
  viability, T/C: 96.2%
Second compound 0.1 µM, first compound 1 µM
  viability, T/C: 88.8%
Second compound 0.1 µM, first compound 3.16 µM
  viability, T/C: 25.4%
Second compound 0.1 µM, first compound 10 µM
  viability, T/C: 4.8%
Second compound 0.316 µM, first compound 0.0316 µM
  viability, T/C: 96.7%
Second compound 0.316 µM, first compound 0.1 µM
  viability, T/C: 114%
Second compound 0.316 µM, first compound 0.316 µM
  viability, T/C: 101%
Second compound 0.316 µM, first compound 1 µM
  viability, T/C: 74.7%
Second compound 0.316 µM, first compound 3.16 µM
  viability, T/C: 23.2%
Second compound 0.316 µM, first compound 10 µM
  viability, T/C: 4.82%
Second compound 1 µM, first compound 0.0316 µM
  viability, T/C: 104%
Second compound 1 µM, first compound 0.1 µM
  viability, T/C: 100%
Second compound 1 µM, first compound 0.316 µM
  viability, T/C: 108%
Second compound 1 µM, first compound 1 µM
  viability, T/C: 84.7%
Second compound 1 µM, first compound 3.16 µM
  viability, T/C: 22.3%
Second compound 1 µM, first compound 10 µM
  viability, T/C: 4.07%
Second compound 3.16 µM, first compound 0.0316 µM
  viability, T/C: 91.5%
Second compound 3.16 µM, first compound 0.1 µM
  viability, T/C: 114%
Second compound 3.16 µM, first compound 0.316 µM
  viability, T/C: 112%
Second compound 3.16 µM, first compound 1 µM
  viability, T/C: 74.5%
Second compound 3.16 µM, first compound 3.16 µM
  viability, T/C: 18.4%
Second compound 3.16 µM, first compound 10 µM
  viability, T/C: 3%
Second compound 10 µM, first compound 0.0316 µM
  viability, T/C: 89.8%
Second compound 10 µM, first compound 0.1 µM
  viability, T/C: 97.8%
Second compound 10 µM, first compound 0.316 µM
  viability, T/C: 96.5%
Second compound 10 µM, first compound 1 µM
  viability, T/C: 65%
Second compound 10 µM, first compound 3.16 µM
  viability, T/C: 18.8%
Second compound 10 µM, first compound 10 µM
  viability, T/C: 3.18%

## Nc1ncn(C2CC(O)C(CO)S2)c(=O)n1 (stereo not given) + Cc1cncc(-c2nc(NCCc3c[nH]c4ccccc34)c3ncn(C(C)C)c3n2)c1
Second compound 0.1 µM
  IC50: > 300 nM
Second compound 0.316 µM
  IC50: > 300 nM
Second compound 1 µM
  IC50: > 300 nM
Second compound 3.16 µM
  IC50: > 300 nM
Second compound 10 µM
  IC50: > 300 nM
Second compound 0.1 µM, first compound 0.000949 µM
  viability, T/C: 102%
Second compound 0.1 µM, first compound 0.003 µM
  viability, T/C: 91.9%
Second compound 0.1 µM, first compound 0.00949 µM
  viability, T/C: 95.1%
Second compound 0.1 µM, first compound 0.03 µM
  viability, T/C: 129%
Second compound 0.1 µM, first compound 0.0949 µM
  viability, T/C: 148%
Second compound 0.1 µM, first compound 0.3 µM
  viability, T/C: 104%
Second compound 0.316 µM, first compound 0.000949 µM
  viability, T/C: 89.5%
Second compound 0.316 µM, first compound 0.003 µM
  viability, T/C: 89.4%
Second compound 0.316 µM, first compound 0.00949 µM
  viability, T/C: 104%
Second compound 0.316 µM, first compound 0.03 µM
  viability, T/C: 109%
Second compound 0.316 µM, first compound 0.0949 µM
  viability, T/C: 140%
Second compound 0.316 µM, first compound 0.3 µM
  viability, T/C: 105%
Second compound 1 µM, first compound 0.000949 µM
  viability, T/C: 98.2%
Second compound 1 µM, first compound 0.003 µM
  viability, T/C: 107%
Second compound 1 µM, first compound 0.00949 µM
  viability, T/C: 107%
Second compound 1 µM, first compound 0.03 µM
  viability, T/C: 140%
Second compound 1 µM, first compound 0.0949 µM
  viability, T/C: 140%
Second compound 1 µM, first compound 0.3 µM
  viability, T/C: 115%
Second compound 3.16 µM, first compound 0.000949 µM
  viability, T/C: 92.2%
Second compound 3.16 µM, first compound 0.003 µM
  viability, T/C: 89.9%
Second compound 3.16 µM, first compound 0.00949 µM
  viability, T/C: 90%
Second compound 3.16 µM, first compound 0.03 µM
  viability, T/C: 106%
Second compound 3.16 µM, first compound 0.0949 µM
  viability, T/C: 121%
Second compound 3.16 µM, first compound 0.3 µM
  viability, T/C: 98.4%
Second compound 10 µM, first compound 0.000949 µM
  viability, T/C: 79.5%
Second compound 10 µM, first compound 0.003 µM
  viability, T/C: 80.2%
Second compound 10 µM, first compound 0.00949 µM
  viability, T/C: 71.8%
Second compound 10 µM, first compound 0.03 µM
  viability, T/C: 76.9%
Second compound 10 µM, first compound 0.0949 µM
  viability, T/C: 70.9%
Second compound 10 µM, first compound 0.3 µM
  viability, T/C: 63.3%
